These results are taken from patent US20250188092A1, “RIFAMYCIN ANALOGS” (THE REGENTS OF THE UNIVERSITY OF MICHIGAN, priority 2021, published 2025).

≈ marks a conversion by molar mass, not a printed value. Read-outs that look alike come from different tables or passages of the source.

In test [1] the test system is M. tuberculosis transformed with luxABCDE. The experiment in a line: microbe, parasite or virus in culture. It counts as cell-based, Mycobacterium tuberculosis. The note with it: for MIC90 / MBC: Mycobacterium tuberculosis, 168 h.
Test [2] has as its system non-replicating cultures of M. tuberculosis H37Rv transformed with lux ABCDE. Put plainly: microbe, parasite or virus in culture. Format: cell-based, Mycobacterium tuberculosis. The conditions noted are these: for MIC90 LORA/MABA: ratio of LORA MIC90 to MABA MIC90.
Where [3] appears, read: day 7 of time-kill study, read-out: MBC99.
[4] abbreviates: Mycobacterium tuberculosis, H37RV, […], ≥90% reduction in luminescence, read-out: MIC90 LORA.
The mark [5] stands for this setting: […], ≥99% reduction in luminescence, read-out: MBC99 Day 7 (Lux Assay) MBC.

`COc1nc2ccc(Br)cc2cc1[C@@H](c1ccccc1)[C@@](O)(CCN(C)C)c1cccc2ccccc12` [Bedaquiline] came in with an MIC90 in test [1] (day 7 of time-kill study) of 0.031 µM (≈ 0.0172 µg/mL). Moreover, the MBC in test [1] (setting [3]) amounted to 0.124 µM (≈ 0.0689 µg/mL).

Turning to `CO[C@H]1/C=C/O[C@@]2(C)Oc3c(C)c(O)c4c(=O)c(c5oc6cccc(OCCCCN7CCN(C(=O)CN8CCOCC8)CC7)c6nc-5c4c3C2=O)NC(=O)/C(C)=C\C=C\[C@H](C)[C@H](O)[C@@H](C)[C@@H](O)[C@@H](C)[C@H](OC(C)=O)[C@@H]1C` [Compound 5e, (7S,9E,11S,12R,13S,14R,15R,16R,17S,18S,19E,21Z)-2,15,17-Trihydroxy-11-methoxy-3,7,12,14,16,18,22-heptamethyl-32-(4-{4-[2-(morpholin-4-yl)acetyl]piperazin-1-yl}butoxy)-6,23,37-trioxo-8,27,38-trioxa-24,34-diazahexacyclo[23.11.1.1^4,7.0^5,36.0^26,35.0^28,33]octatriaconta-1(36)2,4,9,19,21,25,28(33)29,31,34-undecaen-13-yl acetate], in test [2], the “MIC90 LORA Rel to RMP” value amounted to 0.27 and the “MIC90 LORA/MABA” value turned out to be 0.57. For the same compound, in test [2] (setting [4]), the MIC turned out to be 0.047 µM. The “MBC99 Day 7 (Lux Assay) MBC Rel to RMP” value in test [1] is on record as 0.09. In test [1] (setting [5]), the MBC was determined as 0.04 µM.

Turning to `CCC(=O)N1CCN(Cc2cccc(COc3cccc4oc5c6c(=O)c7c(O)c(C)c8c(c7c-5nc34)C(=O)[C@@](C)(O/C=C/[C@H](OC)[C@@H](C)[C@@H](OC(C)=O)[C@H](C)[C@H](O)[C@H](C)[C@@H](O)[C@@H](C)/C=C/C=C(/C)C(=O)N6)O8)c2)CC1` [Compound 11d, (7S,9E,11S,12R,13S,14R,15R,16R,17S,1S,19E,21Z)-2,15,17-Trihydroxy-11-methoxy-3,7,12,14,16,18,22-heptamethyl-6,23,37-trioxo-32-{(3-[(4-propanoylpiperazin-1-yl)methyl]phenyl}methoxy)-8,27,38-trioxa-24,34-diazahexacyclo[23.11.1.1^4,7.0^5,36.0^26,35.0^28,33]octatriaconta-1(36)2,4,9,19,21,25,28,30,32,34-undecaen-13-yl acetate], the MIC90 in test [2] (setting [4]) was less than 0.1 µM. In test [1], the “MBC99 Day 7 (Lux Assay) MBC Rel to RMP” value is listed as 0.08. Also, the MBC in test [1] (setting [5]) amounted to 0.058 µM.

As for `CO[C@H]1/C=C/O[C@@]2(C)Oc3c(C)c(O)c4c(=O)c(c5oc6cccc(OCc7cccc(CN8CCN(C(=O)CN9CCOCC9)CC8)c7)c6nc-5c4c3C2=O)NC(=O)/C(C)=C\C=C\[C@H](C)[C@H](O)[C@@H](C)[C@@H](O)[C@@H](C)[C@H](OC(C)=O)[C@@H]1C` [Compound 11f, (7S,9E,11S,12R,13S,14R,15R,16R,17S,1S,19E,21Z)-2,15,17-Trihydroxy-11-methoxy-3,7,12,14,16,18,22-heptamethyl-32-{[3-({4-[2-(morpholin-4-yl)acetyl]piperazin-1-yl}methyl)phenyl]methoxy}-6,23,37-trioxo-8,27,38-trioxa-24,34-diazahexacyclo[23.11.1.1^4,7.0^5,36.0^26,35.0^28,33]octatriaconta-1(36)2,4,9,19,21,25,28,30,32,34-undecaen-13-yl acetate], in test [2], the “MIC90 LORA Rel to RMP” value is 0.39 and the “MIC90 LORA/MABA” value stood at 15. Moreover, the MIC90 in test [2] (setting [4]) was found to be 0.37 µM. In test [1], the “MBC99 Day 7 (Lux Assay) MBC Rel to RMP” value was 0.11. Besides, the MBC in test [1] (setting [5]) was 0.084 µM.

In the case of `CO[C@H]1/C=C/O[C@@]2(C)Oc3c(C)c(O)c4c(=O)c(c5oc6cccc(OCc7cccc(CN8CCN(C(=O)Cc9ccccc9)CC8)c7)c6nc-5c4c3C2=O)NC(=O)/C(C)=C\C=C\[C@H](C)[C@H](O)[C@@H](C)[C@@H](O)[C@@H](C)[C@H](OC(C)=O)[C@@H]1C` [Compound 11g, (7S,9E,11S,12R,13S,14R,15R,16R,17S,18S,19E,21Z)-2,15,17-Trihydroxy-11-methoxy-3,7,12,14,16,18,22-heptamethyl-6,23,37-trioxo-32-[(3-{[4-(2-phenylacetyl)-piperazin-1-yl]methyl}phenyl)methoxy]-8,27,38-trioxa-24,34-diazahexacyclo[23.11.1.1^4,7.0^5,36.0^26,35.0^28,33]octatriaconta-1(36)2,4,9,19,21,25,28,30,32,34-undecaen-13-yl acetate], in test [2], the “MIC90 LORA Rel to RMP” value was 1.1 and the “MIC90 LORA/MABA” value is listed as 12. For the same compound, the MIC90 in test [2] (setting [4]) came out at 0.131 µM. The “MBC99 Day 7 (Lux Assay) MBC Rel to RMP” value in test [1] was 0.06. In addition, the MBC in test [1] (setting [5]) turned out to be 0.044 µM.

Regarding `CO[C@H]1/C=C/O[C@@]2(C)Oc3c(C)c(O)c4c(=O)c(c5oc6cccc(OCc7ccc(CN8CCN(C(=O)CN9CCOCC9)CC8)cc7)c6nc-5c4c3C2=O)NC(=O)/C(C)=C\C=C\[C@H](C)[C@H](O)[C@@H](C)[C@@H](O)[C@@H](C)[C@H](OC(C)=O)[C@@H]1C` [Compound 16c, (7S,9E,11S,12R,13S,14R,15R,16R,17S,18S,19E,21Z)-2,15,17-Trihydroxy-11-methoxy-3,7,12,14,16,18,22-heptamethyl-32-{[4-({4-[2-(morpholin-4-yl)acetyl]piperazin-1-yl}methyl)phenyl]methoxy}-6,23,37-trioxo-8,27,38-trioxa-24,34-diazahexacyclo[23.11.1.1^4,7.0^5,36.0^26,35.0^28,33]octatriaconta-1(36)2,4,9,19,21,25,28,30,32,34-undecaen-13-yl acetate], the “MBC99 Day 7 (Lux Assay) MBC Rel to RMP” value in test [1] came to 0.08. Also, the MBC in test [1] (setting [5]) was 0.061 µM.

As for `CO[C@H]1/C=C/O[C@@]2(C)Oc3c(C)c(O)c4c(=O)c(c5oc6cc(N7CCN(CC(C)C)CC7)cc(N7CCN(CC(C)C)CC7)c6nc-5c4c3C2=O)NC(=O)/C(C)=C\C=C\[C@H](C)[C@H](O)[C@@H](C)[C@@H](O)[C@@H](C)[C@H](OC(C)=O)[C@@H]1C` [Compound 17u, 7S,9E,11S,12R,13S,14R,15R,16R,17S,18S,19E,21Z)-2,15,17-trihydroxy-11-methoxy-3,7,12,14,16,18,22-heptamethyl-30,32-bis[4-(2-methylpropyl)piperazin-1-yl]-6,23,37-trioxo-8,27,38-trioxa-24,34-diazahexacyclo[23.11.1.1^4,7.0^5,36.0^26,35.0^28,33]octatriaconta-1,3,5(36)9,19,21,25,28,30,32,34-undecaen-13-yl acetate], the “MBC99 Day 7 (Lux Assay) MBC Rel to RMP” value in test [1] was 0.05. In addition, in test [1] (setting [5]), the MBC was 0.025 µM.

For the compound `NNC(=O)c1ccncc1` [Isoniazid, isoniazid, reference compound], in test [1] (day 7 of time-kill study), the MIC90 stood at 0.409 µM (≈ 0.0561 µg/mL). In test [1] (setting [3]), the MBC is 3.59 µM (≈ 0.492 µg/mL).

In turn, `O=[N+]([O-])c1cn2c(n1)OC[C@@H](OCc1ccc(OC(F)(F)F)cc1)C2` [Pretomanid, pretomanid, reference compound] displayed an MIC90 in test [1] (day 7 of time-kill study) of 0.47 µM (≈ 0.169 µg/mL). In test [1] (setting [3]), the MBC stood at 0.597 µM (≈ 0.214 µg/mL).
